Data from patent US20230203058A1, “MACROCYCLIC DIAMINE DERIVATIVES AS ENT INHIBITORS FOR THE TREATMENT OF CANCERS, AND COMBINATION THEREOF WITH ADENOSINE RECEPTOR ANTAGONISTS” (ITEOS BELGIUM SA, priority 2020, published 2023).
Read-outs that look alike come from different tables or passages of the source.

Experiments:
[1] = test system: stimulated primary human T cells; assay: T cell proliferation assay (rescue of proliferation in presence of ATP, CFSE dilution); type: cell-based; conditions: 100 uM ATP
Procedure: The aim of this study was to determine the potency of equilibrative nucleoside transporter 1 (ENT1) inhibitors to rescue proliferation by stimulated primary human T cells incubated in the presence of 100 uM Adenosine triphosphate (ATP), in baseline conditions (condition A) or in the presence of various proteins known to bind small molecules (condition B). Condition A: X-VIVO15 Condition B: X-VIVO15, 2% Human Serum Albumine (HSA) and 0,1% α-1-Acid Glycoprotein (AAG)
Cryopreserved purified human CD3+ T cells were thawed and washed twice with RPMI1640 medium, UltraGlutamine containing 10% hiFBS.
Cells were suspended in PBS containing 10% hiFBS. Cells were stained with CFSE by adding 2 µM solution in PBS, to get a final 1 µM CFSE solution. Cells were incubated while rotating for 5 minutes. Reaction was stopped by adding PBS with 10% FBS and cells were centrifuged for 5 minutes at 1500 rpm.
Cells were resuspended at 1.6 ×10^6 cells/mL, either in X-VIVO15 medium or in 4% Human Serum Albumin and 0,2% α-1-Acid Glycoprotein. 50 µL of cell suspension (8×10^4 T cells) was added to wells of sterile round-bottom 96-well plates. Cells were activated by adding 50 µL of anti-CD3 anti-CD28 coated microbeads, suspended either in XVIVO-15 medium or in 4% HSA and 0,2% α-1-Acid Glycoprotein, at a ratio of one microbead per two cells. Serial dilutions of the ENT1 inhibitors were prepared in X-VIVO15 from 10 mM stock solutions in DMSO, and 50 µL was added to the wells. ATP powder was diluted in X-VIVO15, and 50 µL of this compound was added to the wells to reach a final assay concentration of 100 µM. Final volume of 200 µL. The experiments were also performed in 384 well plates - all volumes reduced by a factor of 4 (12,5 µL) with a final volume of 50 µL. Experiments were performed in duplicate. The cells were placed in a 37° C. humidified tissue culture incubator with 5% CO2 for 72 hours for 96 well plates, 96 hours for 384 well plates. After 72 or 96 hours, proliferation was measured determined by CFSE dilution via flow cytometry.

hERG ion channel = molecular target: T1, hERG ion channel (Homo sapiens, UniProt Q12809); assay: hERG ion channel inhibition (Patchliner automated patch-clamp, CHO cells); type: cell-based; conditions: whole-cell, room temperature, 6-point curve up to 100 µM
T1 construct: Chinese Hamster Ovary cell lines stably expressing the full-length ion channel; expressed in transfected cells
T1 sequence (Q12809 whole entry): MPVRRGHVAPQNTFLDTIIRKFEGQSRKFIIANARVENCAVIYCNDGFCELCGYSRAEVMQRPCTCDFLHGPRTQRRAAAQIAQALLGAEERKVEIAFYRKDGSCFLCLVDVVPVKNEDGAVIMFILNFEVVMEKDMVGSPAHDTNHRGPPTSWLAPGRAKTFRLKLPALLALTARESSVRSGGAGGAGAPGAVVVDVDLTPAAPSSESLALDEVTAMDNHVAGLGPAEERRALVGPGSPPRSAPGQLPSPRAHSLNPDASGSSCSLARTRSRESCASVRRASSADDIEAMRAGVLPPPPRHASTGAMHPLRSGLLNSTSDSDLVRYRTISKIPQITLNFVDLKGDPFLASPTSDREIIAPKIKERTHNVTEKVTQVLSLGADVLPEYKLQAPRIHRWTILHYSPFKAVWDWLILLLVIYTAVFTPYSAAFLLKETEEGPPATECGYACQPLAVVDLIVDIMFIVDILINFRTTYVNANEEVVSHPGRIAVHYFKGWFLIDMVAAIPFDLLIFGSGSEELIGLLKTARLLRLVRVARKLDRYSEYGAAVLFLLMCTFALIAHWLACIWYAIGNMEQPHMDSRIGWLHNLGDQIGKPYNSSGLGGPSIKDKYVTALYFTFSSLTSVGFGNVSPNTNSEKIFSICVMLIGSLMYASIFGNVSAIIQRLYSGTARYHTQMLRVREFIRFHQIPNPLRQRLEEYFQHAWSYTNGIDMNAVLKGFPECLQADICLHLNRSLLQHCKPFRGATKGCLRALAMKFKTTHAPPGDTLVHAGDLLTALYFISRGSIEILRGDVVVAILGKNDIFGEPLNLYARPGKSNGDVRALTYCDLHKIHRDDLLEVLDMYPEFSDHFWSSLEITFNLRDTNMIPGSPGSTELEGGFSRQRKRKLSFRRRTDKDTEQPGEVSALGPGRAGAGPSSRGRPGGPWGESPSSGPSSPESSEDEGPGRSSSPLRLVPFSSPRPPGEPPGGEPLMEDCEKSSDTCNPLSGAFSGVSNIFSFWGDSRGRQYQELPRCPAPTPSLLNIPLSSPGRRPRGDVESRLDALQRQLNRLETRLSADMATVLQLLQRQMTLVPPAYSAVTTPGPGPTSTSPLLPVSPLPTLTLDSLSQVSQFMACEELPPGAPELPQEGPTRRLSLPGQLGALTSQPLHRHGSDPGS
Procedure: The compounds were tested for inhibition of hERG ion channel. 6-Point concentration-response curves were generated on the Patchliner automated patch-clamp using serial dilutions from a maximum test concentration of 100 µM.
Compounds were solubilised to 33 mM in DMSO before dilution in HBPS to 100 µM. 6-Point concentration-response curves were generated using serial dilutions from the top test concentration. Electrophysiological recordings were made from a Chinese Hamster Ovary cell lines stably expressing the full-length ion channel. Single cell ionic currents were measured in whole-cell configuration at room temperature (21-23° C.) using a Patchliner (Nanion Technologies). The internal solution for hERG contained (mM): 120 KF, 20 KCl, 10 EGTA, 10 HEPES and was buffered to pH 7.3. The external solution (HEPES-buffered saline, HBPS) contained (mM): 138 NaCl, 4.5 KCl, 1.8 CaC12, 1.0 MgC12, 10 HEPES, 10 glucose, buffered to pH7.4. Cells were clamped at a holding potential of -80 mV before a depolarising step appropriate for the hERG channel. Currents were measured from the step and referenced to the holding current. Compounds were incubated for 90 seconds. Concentration-response curves were generated by cumulative addition of compound with concentrations low to high. In all cases, steady-state inhibition was achieved before the next concentration of compound was added.
IC50 values were obtained from a 4-parameter logistic fit of the concentration-response data: […]

human ENT1 [2] = molecular target: T2, human ENT1 (Homo sapiens, UniProt Q99808); assay: Uridine transport inhibition assay (3H-uridine uptake in MDCKII-ENT1-LV cells); type: cell-based; conditions: uridine 1 µM, 1 min at 25° C.
T2 sequence (Q99808 1-456): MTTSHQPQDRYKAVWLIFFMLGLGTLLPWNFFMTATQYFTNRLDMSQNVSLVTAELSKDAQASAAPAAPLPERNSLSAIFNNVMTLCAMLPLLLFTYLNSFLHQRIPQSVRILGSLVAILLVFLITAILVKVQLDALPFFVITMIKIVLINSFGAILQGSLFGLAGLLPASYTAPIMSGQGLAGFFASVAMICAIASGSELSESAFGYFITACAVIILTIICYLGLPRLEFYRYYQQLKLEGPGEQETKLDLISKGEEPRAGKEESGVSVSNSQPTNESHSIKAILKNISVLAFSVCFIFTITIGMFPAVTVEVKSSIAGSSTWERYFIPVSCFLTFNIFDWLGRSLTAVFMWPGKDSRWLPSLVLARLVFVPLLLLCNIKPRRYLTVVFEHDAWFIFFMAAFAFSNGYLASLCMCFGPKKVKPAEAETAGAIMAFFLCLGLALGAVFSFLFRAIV
Source text: The aim of this study was to determine the potency of equilibrative nucleoside transporter 1 (ENT1) inhibitors by measuring ENT1-mediated transport is the cellular uptake assay. The human ENT1 transporter can be stably expressed in Madin-Darby Canine Kidney II (MDCKII) cells via transduction. Uridine is efficiently transported by ENT1 and is used as probe in the assay as 3 H-uridine. The interaction is detected as the modulation of the initial rate of 3 H-uridine transport by human ENT1 into MDCKII-ENT1-LV cells stably expressing ENT1 uptake transporter.

human ENT1 [3] = molecular target: T2, human ENT1; assay: ENT1 binding assay (competition with Sahenta-DY647 on JAR cells); parameters: JAR cells expressing ENT1 were bought from ATCC® (HTB-144TM); host or cells: JAR cells (human choriocarcinoma line; whole cells); conditions: competition with Sahenta-DY647 100 nM, 4° C.
Summary of the method: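 Competition binding on intact JAR cells (50000 per well) in HBSS with 10 mM Hepes and 0.1% BSA. Cells pre-incubated with compound 30 min at 4 °C, then Sahenta-DY647 added at its IC90 (100 nM) for another 30 min at 4 °C; after washing, fluorescence read at Ex 630/Em 670 nm.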

human T cells = assay: T cell stimulation assay (Example III, FIG. 1); type: cell-based; conditions: ATP 100 µM
Procedure: FIG. 1A depicts a graph of log concentration (M) versus percent proliferation. Purified human T cells were activated with anti-CD3/CD28 dynabeads in the presence of ATP (100 µM) as a source of adenosine for 96 h and then proliferation was assessed by CFSE dilution.
FIG. 1B depicts a graph of log concentration of ENT1 inhibitor (M) versus percent proliferation. Experiment performed as in FIG. A with the addition of HSA and AAG to the culture medium (final concentration 2 and 0.1%, respectively).
Peripheral blood mononuclear cells (PBMCs) were first isolated via centrifugation of fresh whole blood over Lymphoprep using SepMate-50 tubes (both from […] Technologies) according to the manufacturer’s instructions. Human T cells were then isolated from the PBMCs using the EasySep Human T cell Isolation Kit ([…] Technologies) according to the manufacturer’s instructions and the cells were cryopreserved in FBS with 10% DMSO until required.
Cryopreserved human T cells were thawed on the day of the experiment and resuspended in PBS with 10% FBS at approximately 1 × 10^7 cells/ml. This cell suspension was diluted 1:1 with 2 µM CFSE solution (ThermoFisher Scientific) in PBS and incubated for 5 minutes at room temperature. The labelling reaction was quenched by further addition of PBS with 10% FBS, and then the cells were washed into X-VIVO15 medium (Lonza) for use in the T cell assay.
CFSE-labelled T cells were plated at 2 × 10^4 cells per well in 384 well plates in the presence of ATP (100 µM, Sigma-Aldrich) as a source of adenosine. Activation was driven by the addition of Dynabeads Human T-Activator CD3/CD28 (ThermoFisher Scientific) at a ratio of 0,5 beads per T cell. ENT1 inhibitor molecules including the reference molecule dilazep (Tocris Bioscience) were added, the volume of the wells was adjusted to 50 µl with X-VIVO15 medium and the plates were cultured in a humidified incubator for 96 h at 37° C. with 5% CO2. In some experiments the culture was supplemented with human serum albumin (HSA) and alpha-1-acid glycoprotein (AAG, both Sigma-Aldrich) at final concentrations of 2 and 0,1%, respectively.
Analysis of proliferation via CSFE dilution was performed by flow cytometry using a BD LSR Fortessa with data analysis on FlowJo (BD Biosciences).

MCA205 cells = assay: Syngeneic fibrosarcoma model (MCA205, FIG. 4); type: in vivo, C57BL/6 mice
Procedure: FIG. 4 consists of three graphs: A, B, and C depicting the evalution of to assess the anti-tumor efficacy of compound Compound 8 in syngeneic fibrosarcoma model.
To assess the anti-tumor efficacy of compound Compound 8 in syngeneic fibrosarcoma model, C57BL/6 (n=8) were subcutaneously inoculated with […] MCA205 cells in the right flank. At day 8 after inoculation the mice were randomized according tumor size and received oral treatment of Compound 8 at 10 mg/kg or its vehicle. The mice were monitored 3 times a week for tumor measurements, and the data plotted below. […] (FIG. 4B and FIG. 4C) At day 21 after inoculation, 57% of the mice treated with 10 mg/kg of Compound 8 were responsive to Compound 8 treatment and at day 31 15% of the mice presented significant tumor growth delay with tumors below 1000 mm^3. The statistical analysis was performed in JMP software using linear fixed model.

[4] = Condition A: X-VIVO15, read-out: T Cell proliferation (Condition A) IC50
[5] = Condition B: X-VIVO15, 2% HSA and 0,1% AAG, read-out: (2) T Cell proliferation (Condition B) IC50

IC50 (human ENT1 [2]) [nM] | IC50 (human ENT1 [3]) [nM] | SMILES | IC50 [1, 4] [nM] | IC50 [1, 5] [nM] | IC50 (hERG ion channel) [nM] | IC50 (human T cells; anti-CD3/CD28 dynabeads, 96 h (FIG. 1A), read-out: IC50 of restoration of T cell proliferation) [nM] | IC50 (human T cells; with HSA 2% and AAG 0,1% (FIG. 1B), read-out: IC50 of restoration of T cell proliferation under high protein binding conditions) [nM] | Median tumor growth kinetics versus vehicle (MCA205 cells; 10 mg/kg oral (FIG. 4A)) | Mice responsive to treatment (MCA205 cells; 10 mg/kg oral, day 21 after inoculation) [%] | Mice with significant tumor growth delay, tumors below 1000 mm^3 (MCA205 cells; 10 mg/kg oral, day 31 after inoculation) [%]
1 to 20 | 1 to 20 | COc1cc(C(=O)OC2CCCOc3cc(cc(OC)c3OC)C(=O)OCCCN3CCN(CC2)CC(F)(F)C3)cc(OC)c1OC (centres unmarked) [Compound 4, 16,16-difluoro-74,75-dimethoxy-6-oxo-5,8-dioxa-1(1,4)-diazepana-7(1,3)-benzenacyclotetradecaphane-12-yl 3,4,5-trimethoxybenzoate] | < 1 | 1 to 20 | 73000 | – | – | – | – | –
– | 1 to 20 | COc1cc(C(=O)OC2CCCOc3cc(cc(OC)c3OC)C(=O)NCCCN3CCCN(CC2)CC3)cc(OC)c1OC (centres unmarked) [Compound 8, 74,75-dimethoxy-6-oxo-8-oxa-5-aza-1(1,4)-diazepana-7(1,3)-benzenacyclotetradecaphane-12-yl 3,4,5-trimethoxybenzoate] | – | – | – | 2 | 16 | slight change in tumor size | 57 | 15
1 to 20 | 1 to 20 | COc1cc(C(=O)O[C@@H]2CCCOc3cc(cc(OC)c3OC)C(=O)NCCCN3CCCN(CC2)CC3)cc(OC)c1OC [Compound 10, (12R)-74,75-dimethoxy-6-oxo-8-oxa-5-aza-1(1,4)-diazepana-7(1,3)-benzenacyclotetradecaphane-12-yl 3,4,5-trimethoxybenzoate] | 1 to 20 | 20 to 500 | 3400 | – | – | – | – | –
1 to 20 | 1 to 20 | COc1cc(C(=O)O[C@@H]2CCCOc3cc(cc(OC)c3OC)C(=O)N(C)CCCN3CCCN(CC2)CC3)cc(OC)c1OC [Compound 13, (12R)-74,75-dimethoxy-5-methyl-6-oxo-8-oxa-5-aza-1(1,4)-diazepana-7(1,3)-benzenacyclotetradecaphane-12-yl 3,4,5-trimethoxybenzoate] | 1 to 20 | > 500 | – | – | – | – | – | –
